Experimental data as given in ChEMBL document CHEMBL3351986, “Probing linker design in citric acid-ciprofloxacin conjugates” (2014).
In brackets after ≈: the same amount, converted by molar mass. Activity calls are given as the source filed them. No cut-off for these calls is given here.

Columns and labels:
[1] = system: Stenotrophomonas maltophilia; experiment: Antimicrobial activity against Stenotrophomonas maltophilia N1127 after 18 hrs by micro dilution method; format: functional; details: N1127, 18 h
Staphylococcus aureus [2] = experiment: Antimicrobial activity against Staphylococcus aureus BIG 52 after 18 hrs by micro dilution method; format: functional; details: BIG 52, 18 h
Serratia marcescens [3] = experiment: Ratio of compound MIC to ciprofloxacin MIC for Serratia marcescens BIG 11 NCTC 1377 after 18 hrs by micro dilution method; format: functional
Pseudomonas aeruginosa [4] = experiment: Antimicrobial activity against Pseudomonas aeruginosa NCTC 10662 after 18 hrs by micro dilution method; format: functional; details: NCTC 10662, 18 h
Staphylococcus aureus [5] = experiment: Antimicrobial activity against Staphylococcus aureus NCTC 13143 after 18 hrs by micro dilution method; format: functional; details: NCTC 13143, 18 h
Burkholderia cepacia [6] = experiment: Antimicrobial activity against Burkholderia cepacia BIG 117 after 18 hrs by micro dilution method; format: functional; details: BIG 117, 18 h
Staphylococcus aureus [7] = experiment: Antimicrobial activity against Staphylococcus aureus (Oxford) NCTC 6571 after 18 hrs by micro dilution method; format: functional; details: (Oxford) NCTC 6571, 18 h
Burkholderia cepacia [8] = experiment: Antimicrobial activity against Burkholderia cepacia BIG 9 NCTC 10744 after 18 hrs by micro dilution method; format: functional; details: BIG 9 NCTC 10744, 18 h
Pseudomonas aeruginosa [9] = experiment: Antimicrobial activity against Pseudomonas aeruginosa BIG 63 after 18 hrs by micro dilution method; format: functional; details: BIG 63, 18 h
[10] = system: Stenotrophomonas maltophilia; experiment: Antimicrobial activity against Stenotrophomonas maltophilia N1124 after 18 hrs by micro dilution method; format: functional; details: N1124, 18 h
Burkholderia cepacia [11] = experiment: Antimicrobial activity against Burkholderia cepacia BIG 121 after 18 hrs by micro dilution method; format: functional; details: BIG 121, 18 h
Serratia marcescens [12] = experiment: Antimicrobial activity against Serratia marcescens BIG 11 NCTC 1377 after 18 hrs by micro dilution method; format: functional; details: BIG 11 NCTC 1377, 18 h
Staphylococcus aureus [13] = experiment: Antimicrobial activity against Staphylococcus aureus NCTC 13142 after 18 hrs by micro dilution method; format: functional; details: NCTC 13142, 18 h
Burkholderia cepacia [14] = experiment: Ratio of compound MIC to ciprofloxacin MIC for Burkholderia cepacia BIG 9 NCTC 10744 after 18 hrs by micro dilution method; format: functional
Pseudomonas aeruginosa [15] = experiment: Ratio of compound MIC to ciprofloxacin MIC for Pseudomonas aeruginosa NCTC 10662 after 18 hrs by micro dilution method; format: functional
Pseudomonas aeruginosa [16] = experiment: Ratio of compound MIC to ciprofloxacin MIC for Pseudomonas aeruginosa environmental isolate after 18 hrs by micro dilution method; format: functional
[17] = system: Staphylococcus epidermidis; experiment: Antimicrobial activity against Staphylococcus epidermidis NCTC 2749 after 18 hrs by micro dilution method; format: functional; details: NCTC 2749, 18 h
Pseudomonas aeruginosa [18] = experiment: Antimicrobial activity against Pseudomonas aeruginosa BIG 37 clinical isolate after 18 hrs by micro dilution method; format: functional; details: BIG 37, 18 h
[19] = system: Staphylococcus epidermidis; experiment: Ratio of compound MIC to ciprofloxacin MIC for Staphylococcus epidermidis NCTC 2749 after 18 hrs by micro dilution method; format: functional
Escherichia coli [20] = experiment: Ratio of compound MIC to ciprofloxacin MIC for Escherichia coli NCTC 10418 after 18 hrs by micro dilution method; format: functional
Pseudomonas aeruginosa [21] = experiment: Antimicrobial activity against Pseudomonas aeruginosa environmental isolate BIG 39 after 18 hrs by micro dilution method; format: functional; details: BIG 39, 18 h
Pseudomonas aeruginosa [22] = experiment: Ratio of compound MIC to ciprofloxacin MIC for Pseudomonas aeruginosa BIG 63 after 18 hrs by micro dilution method; format: functional
Staphylococcus aureus [23] = experiment: Antimicrobial activity against Staphylococcus aureus HG-1 after 18 hrs by micro dilution method; format: functional; details: HG-1, 18 h
[24] = system: Staphylococcus epidermidis; experiment: Antimicrobial activity against Staphylococcus epidermidis NCTC 11047 after 18 hrs by micro dilution method; format: functional; details: NCTC 11047, 18 h
Burkholderia cepacia [25] = experiment: Antimicrobial activity against Burkholderia cepacia BIG 118 after 18 hrs by micro dilution method; format: functional; details: BIG 118, 18 h
[26] = system: Staphylococcus haemolyticus; experiment: Antimicrobial activity against Staphylococcus haemolyticus NCTC 11042 after 18 hrs by micro dilution method; format: functional; details: NCTC 11042, 18 h
[27] = Inhibition of DNA gyrase (unknown origin) assessed as reduction in supercoiled form of DNA at 20 uM using ethidium bromide staining by gel electrophoresis
Burkholderia cepacia [28] = experiment: Antimicrobial activity against Burkholderia cepacia BIG 119 after 18 hrs by micro dilution method; format: functional; details: BIG 119, 18 h
[29] = system: Stenotrophomonas maltophilia; experiment: Antimicrobial activity against Stenotrophomonas maltophilia N1119 after 18 hrs by micro dilution method; format: functional; details: N1119, 18 h
Burkholderia cepacia [30] = experiment: Antimicrobial activity against Burkholderia cepacia BIG 120 after 18 hrs by micro dilution method; format: functional; details: BIG 120, 18 h
Escherichia coli [31] = experiment: Antimicrobial activity against Escherichia coli NCTC 10418 after 18 hrs by micro dilution method; format: functional; details: NCTC 10418, 18 h
Escherichia coli [32] = experiment: Antimicrobial activity against Escherichia coli BIG 0046 after 18 hrs by micro dilution method; format: functional; details: BIG 0046, 18 h
[33] = Inhibition of DNA gyrase (unknown origin) assessed as reduction in supercoiled form of DNA at 5 to 20 uM using ethidium bromide staining by gel electrophoresis

Row | SMILES | MIC [1] | MIC (Staphylococcus aureus [2]) | MIC (Staphylococcus aureus [5]) | MIC (Burkholderia cepacia [6]) | MIC (Staphylococcus aureus [7]) | MIC (Burkholderia cepacia [8]) | MIC [10] | MIC (Burkholderia cepacia [11]) | MIC (Serratia marcescens [12]) | MIC (Staphylococcus aureus [13]) | MIC [17] | MIC (Staphylococcus aureus [23]) | MIC [24] | MIC (Burkholderia cepacia [25]) | MIC [26] | MIC (Burkholderia cepacia [28]) | MIC [29] | MIC (Burkholderia cepacia [30]) | MIC (Escherichia coli [32]) | other results
1 | O=C(O)CC(O)(CC(=O)NCCCCC(=O)N1CCN(c2cc3c(cc2F)c(=O)c(C(=O)O)cn3C2CC2)CC1)C(=O)O (racemic) | > 36 µg/mL | > 36 µg/mL | > 36 µg/mL | > 36 µg/mL | > 36 µg/mL | 32 µg/mL (≈ 52.9 µM) | > 36 µg/mL | > 36 µg/mL | 4 µg/mL (≈ 6.62 µM) | > 36 µg/mL | 32 µg/mL (≈ 52.9 µM) | > 36 µg/mL | > 36 µg/mL | > 36 µg/mL | > 36 µg/mL | > 36 µg/mL | > 36 µg/mL | > 36 µg/mL | > 36 µg/mL | Ratio (Serratia marcescens [3]): 36.5; MIC (Pseudomonas aeruginosa [4]): 16 µg/mL (≈ 26.5 µM); MIC (Pseudomonas aeruginosa [9]): 16 µg/mL (≈ 26.5 µM); Ratio (Burkholderia cepacia [14]): 35; Ratio (Pseudomonas aeruginosa [15]): 35; Ratio (Pseudomonas aeruginosa [16]): 35; MIC (Pseudomonas aeruginosa [18]): > 36 µg/mL; Ratio [19]: 70; Ratio (Escherichia coli [20]): 8.8; MIC (Pseudomonas aeruginosa [21]): 16 µg/mL (≈ 26.5 µM); Ratio (Pseudomonas aeruginosa [22]): 35; inhibition [27]: Active; MIC (Escherichia coli [31]): 1 µg/mL (≈ 1.65 µM)
2 | O=C(O)c1cn(C2CC2)c2cc(N3CCNCC3)c(F)cc2c1=O [CIPROFLOXACIN] | 2 µg/mL (≈ 6.04 µM) | 0.5 µg/mL (≈ 1.51 µM) | > 36 µg/mL | 1 µg/mL (≈ 3.02 µM) | 0.25 µg/mL (≈ 0.754 µM) | 0.5 µg/mL (≈ 1.51 µM) | 4 µg/mL (≈ 12.1 µM) | 8 µg/mL (≈ 24.1 µM) | 0.06 µg/mL (≈ 0.181 µM) | 0.5 µg/mL (≈ 1.51 µM) | 0.25 µg/mL (≈ 0.754 µM) | > 36 µg/mL | 0.125 µg/mL (≈ 0.377 µM) | 0.25 µg/mL (≈ 0.754 µM) | 0.125 µg/mL (≈ 0.377 µM) | 4 µg/mL (≈ 12.1 µM) | 1 µg/mL (≈ 3.02 µM) | 2 µg/mL (≈ 6.04 µM) | > 36 µg/mL | inhibition [33]: Active
